From patent US5120744A, “Substituted (quinolin-2-yl-methoxy)phenylthioureas” (Bayer Aktiengesellschaft, priority 1989, dated 1992) come the findings set out here.

The subject of this test is lipoxygenase. In words: lipoxygenase inhibition: release of leukotriene B4 (LTB4) from polymorphonuclear rat leukocytes (PMN), reverse phase HPLC, after adding substances and Ca ionophore. Format: cell-based. The following applies: read-out: LO inhibition IC50. The method, then: As a measure of the lipoxygenase inhibition, the release of leukotriene B4 (LTB4) from polymorphonuclear rat leukocytes (PMN) was determined by means of reverse phase HPLC according to Borgeat, P. et al., Proc. Nat. Acad. Sci. 76, 2148-2152 (1979) after adding substances and Ca ionophore. The in vivo activity of the compounds was determined using the mouse ear inflammation model according to Young, J. M. et al., J. of Investigative Dermatology 82, 367-371, (1984).
For `Cc1cc([N+](=O)[O-])ccc1NC(=S)Nc1ccc(OCc2ccc3ccccc3n2)cc1` [Example 3, N-(2-Methyl-4-nitrophenyl)-N'-4-(quinolin-2-yl-methoxy)phenyl-thiourea], the IC50 (commonly the concentration at which inhibition is half-maximal) was determined as 36 nM.

Consider `Cc1cc([N+](=O)[O-])c(Cl)cc1NC(=S)Nc1ccc(OCc2ccc3ccccc3n2)cc1` [Example 4, N-(2-Methyl-4-nitro-5-chlorophenyl)-N'-4-(quinolin-2-yl-methyloxy)phenyl-thiourea], for which the IC50 came to 33 nM.

As to `Cc1cc(Cl)c(Cl)cc1NC(=S)Nc1ccc(OCc2ccc3ccccc3n2)cc1` [Example 5], the IC50 turned out to be 410 nM.

With `O=C(NC(=S)Nc1ccc(OCc2ccc3ccccc3n2)cc1)c1ccc(Cl)cc1` [Example 6, N-(4-Chlorobenzoyl)-N'-4-(quinolin-2-yl-methoxy)-phenyl-thiourea], the IC50 was 360 nM.

For the compound `N#CC1(NC(=S)Nc2ccc(OCc3ccc4ccccc4n3)cc2)CCCCC1` [Example 7, N-(1-Cyano-cyclohexyl)-N'-4-(quinolin-2-yl-methoxy)phenyl-thiourea], the IC50 was 240 nM.

For the compound `Cc1cc(Cl)ccc1NC(=S)Nc1ccc(OCc2ccc3ccccc3n2)cc1` [Example 8, N-(2-Methyl-4-chlorophenyl)-N'-4-(quinolin-2-yl-methoxy)phenyl-thiourea], the IC50 came out at 290 nM.
